US11446287B2, “Compounds and methods for EP300 or CBP modulation and indications therefor” (Opna Immuno-Oncology SA, priority 2019, dated 2022)

target: T1, Recombinant human EP300 containing the bromodomain (EP300-BD (1040-1161)) (Homo sapiens, UniProt Q09472); test: EP300 Alphascreen binding assay
T1 construct: Recombinant human EP300 bromodomain (EP300-BD (1040-1161)); made in house; host or cells: E. coli BL21-CodonPlus (DE3), modified pET vector
T1 sequence (Q09472 1040-1161): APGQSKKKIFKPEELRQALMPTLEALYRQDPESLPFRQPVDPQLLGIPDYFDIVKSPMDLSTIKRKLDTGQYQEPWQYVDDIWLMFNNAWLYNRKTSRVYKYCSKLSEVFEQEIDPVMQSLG
Procedure, shortened: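 Displacement of a biotinylated acetyl-K56 histone H3 peptide from the N-His bromodomain construct (1040-1161) measured by AlphaScreen proximity, beads at 7.5 μg/ml final, read 60 min after addition. Protein, peptide and compound first incubated 1 h at room temperature, pH 7.5 HEPES buffer; IC50 by four-parameter logistic fit.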

Compound	IC50 [µM]
Cc1noc(C)c1-c1cnc2c(c1)c(-c1ccc(C(N)=O)cc1)cn2C(c1ccccn1)C1CCCC1 (centres unmarked) [P-0020, 4-(1-(cyclopentyl(pyridin-2-yl)methyl)-5-(3,5-dimethylisoxazol-4-yl)-1H-pyrrolo[2,3-b]pyridin-3-yl)benzamide]	1 to 8
CNC(=O)c1ccc(-c2cn(C(c3ccccn3)C3CCCC3)c3ncc(-c4c(C)noc4C)cc23)cc1 (centres unmarked) [P-0021, 4-(1-(cyclopentyl(pyridin-2-yl)methyl)-5-(3,5-dimethylisoxazol-4-yl)-1H-pyrrolo[2,3-b]pyridin-3-yl)-N-methylbenzamide]	1 to 8
Cc1noc(C)c1-c1cnc2c(c1)c(-c1ccc(C#N)cc1)cn2C(c1ccccn1)C1CCCC1 (centres unmarked) [P-0022, 4-(1-(cyclopentyl(pyridin-2-yl)methyl)-5-(3,5-dimethylisoxazol-4-yl)-1H-pyrrolo[2,3-b]pyridin-3-yl)benzonitrile]	8 to 1000
Cc1noc(C)c1-c1cnc2c(c1)c(-c1ccc3c(c1)CNC3=O)cn2C(c1ccccn1)C1CCCC1 (centres unmarked) [P-0023, 5-(1-(cyclopentyl(pyridin-2-yl)methyl)-5-(3,5-dimethylisoxazol-4-yl)-1H-pyrrolo[2,3-b]pyridin-3-yl)isoindolin-1-one]	1 to 8
Cc1noc(C)c1-c1cnc2c(c1)c(-c1ccc(-c3nn[nH]n3)cc1)cn2C(c1ccccn1)C1CCCC1 (centres unmarked) [P-0024, 4-(3-(4-(2H-tetrazol-5-yl)phenyl)-1-(cyclopentyl(pyridin-2-yl)methyl)-1H-pyrrolo[2,3-b]pyridin-5-yl)-3,5-dimethylisoxazole]	1 to 8
Cc1noc(C)c1-c1cnc2c(c1)c(-c1ccc(C(=O)O)c(F)c1)cn2C(c1ccccn1)C1CCCC1 (centres unmarked) [P-0025, 4-(1-(cyclopentyl(pyridin-2-yl)methyl)-5-(3,5-dimethylisoxazol-4-yl)-1H-pyrrolo[2,3-b]pyridin-3-yl)-2-fluorobenzoic acid]	0.0001 to 1
Cc1noc(C)c1-c1cnc2c(c1)c(-c1ccc(C(=O)O)nc1)cn2C(c1ccccn1)C1CCCC1 (centres unmarked) [P-0026, 5-(1-(cyclopentyl(pyridin-2-yl)methyl)-5-(3,5-dimethylisoxazol-4-yl)-1H-pyrrolo[2,3-b]pyridin-3-yl)picolinic acid]	0.0001 to 1
Cc1cc(-c2c(C(F)(F)F)n([C@@H](C)c3ccccn3)c3cc(-c4c(C)noc4C)cnc23)ccc1C(=O)O [P-0243, (S)-4-(6-(3,5-dimethylisoxazol-4-yl)-1-(1-(pyridin-2-yl)ethyl)-2-(trifluoromethyl)-1H-pyrrolo[3,2-b]pyridin-3-yl)-2-methylbenzoic acid]	1 to 8
COc1cc(-c2c(C(F)(F)F)n([C@@H](C)c3ccccn3)c3cc(-c4c(C)noc4C)cnc23)ccc1C(=O)O [P-0244, (S)-4-(6-(3,5-dimethylisoxazol-4-yl)-1-(1-(pyridin-2-yl)ethyl)-2-(trifluoromethyl)-1H-pyrrolo[3,2-b]pyridin-3-yl)-2-methoxybenzoic acid]	1 to 8
Cc1noc(C)c1-c1cnc2c(-c3cccc(C(=O)O)c3F)c(C(F)(F)F)n([C@@H](C)c3ccccn3)c2c1 [P-0245, (S)-3-(6-(3,5-dimethylisoxazol-4-yl)-1-(1-(pyridin-2-yl)ethyl)-2-(trifluoromethyl)-1H-pyrrolo[3,2-b]pyridin-3-yl)-2-fluorobenzoic acid]	0.0001 to 1
Cc1noc(C)c1-c1cnc2c(-c3cccc(C(=O)O)c3C)c(C(F)(F)F)n([C@@H](C)c3ccccn3)c2c1 [P-0246, (S)-3-(6-(3,5-dimethylisoxazol-4-yl)-1-(1-(pyridin-2-yl)ethyl)-2-(trifluoromethyl)-1H-pyrrolo[3,2-b]pyridin-3-yl)-2-methylbenzoic acid]	1 to 8
Cc1noc(C)c1-c1cnc2c(-c3cccc(C(=O)O)c3Cl)c(C(F)(F)F)n([C@@H](C)c3ccccn3)c2c1 [P-0247, (S)-2-chloro-3-(6-(3,5-dimethylisoxazol-4-yl)-1-(1-(pyridin-2-yl)ethyl)-2-(trifluoromethyl)-1H-pyrrolo[3,2-b]pyridin-3-yl)benzoic acid]	0.0001 to 1
CCOC(=O)c1cc(-c2cn(-c3ccc(F)cc3F)c3ncc(-c4c(C)noc4C)cc23)c(OCC)cc1O [P-0248, ethyl 5-(1-(2,4-difluorophenyl)-5-(3,5-dimethylisoxazol-4-yl)-1H-pyrrolo[2,3-b]pyridin-3-yl)-4-ethoxy-2-hydroxybenzoate]	8 to 1000
CCOc1cc(O)c(C(=O)O)cc1-c1cn(-c2ccc(F)cc2F)c2ncc(-c3c(C)noc3C)cc12 [P-0249, 5-(1-(2,4-difluorophenyl)-5-(3,5-dimethylisoxazol-4-yl)-1H-pyrrolo[2,3-b]pyridin-3-yl)-4-ethoxy-2-hydroxybenzoic acid]	0.0001 to 1
CCOc1cc(OC)c(C(=O)O)cc1-c1cn(-c2ccc(F)cc2F)c2ncc(-c3c(C)noc3C)cc12 [P-0250, 5-(1-(2,4-difluorophenyl)-5-(3,5-dimethylisoxazol-4-yl)-1H-pyrrolo[2,3-b]pyridin-3-yl)-4-ethoxy-2-methoxybenzoic acid]	0.0001 to 1
Cc1noc(C)c1-c1cnc2c(c1)c(-c1ccc(C(=O)O)cc1OC(F)(F)F)cn2-c1cnccc1F [P-0251, 4-(5-(3,5-dimethylisoxazol-4-yl)-1-(4-fluoropyridin-3-yl)-1H-pyrrolo[2,3-b]pyridin-3-yl)-3-(trifluoromethoxy)benzoic acid]	0.0001 to 1
Cc1noc(C)c1-c1cnc2c(c1)c(-c1ccc(C(=O)O)cc1OC(F)(F)F)cn2-c1cnccc1O [P-0252, 4-(5-(3,5-dimethylisoxazol-4-yl)-1-(4-hydroxypyridin-3-yl)-1H-pyrrolo[2,3-b]pyridin-3-yl)-3-(trifluoromethoxy)benzoic acid]	0.0001 to 1
Cc1noc(C)c1-c1cnc2c(c1)c(-c1ccc(C(=O)O)cc1OC(F)(F)F)cn2-c1ccncc1Cl [P-0253, 4-(1-(3-chloropyridin-4-yl)-5-(3,5-dimethylisoxazol-4-yl)-1H-pyrrolo[2,3-b]pyridin-3-yl)-3-(trifluoromethoxy)benzoic acid]	0.0001 to 1
Cc1noc(C)c1-c1cnc2c(c1)c(-c1ccc(C(=O)O)cc1OC(F)(F)F)cn2-c1c(F)cccc1C#N [P-0254, 4-(1-(2-cyano-6-fluorophenyl)-5-(3,5-dimethylisoxazol-4-yl)-1H-pyrrolo[2,3-b]pyridin-3-yl)-3-(trifluoromethoxy)benzoic acid]	0.0001 to 1
COc1cc(C(=O)O)cc(C)c1-c1cn(-c2ccccc2)c2ncc(-c3c(C)noc3C)cc12 [P-0255, 4-(5-(3,5-dimethylisoxazol-4-yl)-1-phenyl-1H-pyrrolo[2,3-b]pyridin-3-yl)-3-methoxy-5-methylbenzoic acid]	0.0001 to 1
Cc1noc(C)c1-c1cnc2c(-c3ccc(C(=O)O)cc3C#N)c(C(F)(F)F)n([C@@H](C)c3ccccn3)c2c1 [P-0256, (S)-3-cyano-4-(6-(3,5-dimethylisoxazol-4-yl)-1-(1-(pyridin-2-yl)ethyl)-2-(trifluoromethyl)-1H-pyrrolo[3,2-b]pyridin-3-yl)benzoic acid]	0.0001 to 1
Cc1noc(C)c1-c1cnc2c(-c3cc(C(=O)O)ccc3Cl)c(C(F)(F)F)n([C@@H](C)c3ccccn3)c2c1 [P-0257, (S)-4-chloro-3-(6-(3,5-dimethylisoxazol-4-yl)-1-(1-(pyridin-2-yl)ethyl)-2-(trifluoromethyl)-1H-pyrrolo[3,2-b]pyridin-3-yl)benzoic acid]	0.0001 to 1
CCOc1cc(C(=O)O)cc(OCC)c1-n1cc(-c2cnn(CS(C)(=O)=O)c2)c2ncc(-c3c(C)noc3C)cc21 [P-0258, 4-(6-(3,5-dimethylisoxazol-4-yl)-3-(1-((methylsulfonyl)methyl)-1H-pyrazol-4-yl)-1H-pyrrolo[3,2-b]pyridin-1-yl)-3,5-diethoxybenzoic acid]	0.0001 to 1
CCOc1cc(C(=O)O)cc(OCC)c1-n1cc(-c2cn(C(C)C)nc2C)c2ncc(-c3c(C)noc3C)cc21 [P-0259, 4-(6-(3,5-dimethylisoxazol-4-yl)-3-(1-isopropyl-3-methyl-1H-pyrazol-4-yl)-1H-pyrrolo[3,2-b]pyridin-1-yl)-3,5-diethoxybenzoic acid]	0.0001 to 1
CCOc1cc(C(=O)O)cc(OCC)c1-n1cc(-c2cnn(CC(C)(C)O)c2)c2ncc(-c3c(C)noc3C)cc21 [P-0260, 4-(6-(3,5-dimethylisoxazol-4-yl)-3-(1-(2-hydroxy-2-methylpropyl)-1H-pyrazol-4-yl)-1H-pyrrolo[3,2-b]pyridin-1-yl)-3,5-diethoxybenzoic acid]	0.0001 to 1
CCOc1cc(C(=O)O)cc(OCC)c1-n1cc(-c2cnn(C(F)F)c2)c2ncc(-c3c(C)noc3C)cc21 [P-0261, 4-(3-(1-(difluoromethyl)-1H-pyrazol-4-yl)-6-(3,5-dimethylisoxazol-4-yl)-1H-pyrrolo[3,2-b]pyridin-1-yl)-3,5-diethoxybenzoic acid]	0.0001 to 1
CCOc1cc(C(=O)O)cc(OCC)c1-n1cc(-c2cnn(CCN(C)C)c2)c2ncc(-c3c(C)noc3C)cc21 [P-0262, 4-(3-(1-(2-(dimethylamino)ethyl)-1H-pyrazol-4-yl)-6-(3,5-dimethylisoxazol-4-yl)-1H-pyrrolo[3,2-b]pyridin-1-yl)-3,5-diethoxybenzoic acid]	0.0001 to 1
CCOc1cc(C(=O)O)cc(OCC)c1-n1cc(-c2cn(C)nc2C)c2ncc(-c3c(C)noc3C)cc21 [P-0263, 4-(3-(1,3-dimethyl-1H-pyrazol-4-yl)-6-(3,5-dimethylisoxazol-4-yl)-1H-pyrrolo[3,2-b]pyridin-1-yl)-3,5-diethoxybenzoic acid]	0.0001 to 1
CCOc1cc(C(=O)O)cc(OCC)c1-n1cc(-c2cnn(CC3CC3)c2)c2ncc(-c3c(C)noc3C)cc21 [P-0264, 4-(3-(1-(cyclopropylmethyl)-1H-pyrazol-4-yl)-6-(3,5-dimethylisoxazol-4-yl)-1H-pyrrolo[3,2-b]pyridin-1-yl)-3,5-diethoxybenzoic acid]	0.0001 to 1
